The target in the assay is T1, L. helveticus PDT (Lactobacillus helveticus, UniProt Q8RLY5).
T1 construct: gene ptd; recombinant in E. coli BL21(DE3)pLysS from pETLH4; ammonium sulfate and Sephacryl S-200, no tag mentioned; C-terminal residue Tyr167; active site shared with adjacent monomer; 3 monomers per ASU
The assay can be described thus: X-ray crystallography, […] Å, soaked crystals. The format is binding. The conditions noted are these: soak up to 6 mM; active site, four overlapping orientations; also deoxyribosylated at N1 and N7 with dGuo donor.

The structures appear in SMILES notation.

T1 sequence (Q8RLY5 entry or part of it): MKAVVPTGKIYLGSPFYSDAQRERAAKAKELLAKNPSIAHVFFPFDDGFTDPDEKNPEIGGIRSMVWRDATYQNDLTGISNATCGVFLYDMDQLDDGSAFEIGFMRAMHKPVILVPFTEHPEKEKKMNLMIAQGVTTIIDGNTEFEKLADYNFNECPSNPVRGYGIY

Turning to `O=c1[nH]c2nccn2c2nc[nH]c12` [compound 1, 8,9-dihydro-9-oxoimidazo[2,1-b]purine], the “X-ray crystallography, 2.1 Å, soaked crystals” value was “the substrate binds in at least four different, overlapping orientations”.

(Values after paper PMC4270796, “Ethenoguanines Undergo Glycosylation by Nucleoside 2′-Deoxyribosyltransferases at Non-Natural Sites” (PLoS ONE, 2014).)
